Molecules are shown by their SMILES.

This note sets out measurements from US12077503B2, “Substituted cyclic amides and their use as herbicides” (FMC CORPORATION, priority 2015, dated 2024).

Assay type in all cases: in vivo
One experiment concerns Kochia (Kochia scoparia). The experiment in a line: Test A preemergence. The following applies: Bassia scoparia, pre-emergence, 240 h, read-out: Plant response rating, Kochia; for pest or weed control at 125 g/ha: 125 g ai/ha, visual rating after approx. 10 d, 0 to 100 scale where 0 is no effect and 100 is complete control; for pest or weed control at 125 g/ha / pest or weed control at 500 g/ha: preemergence; for pest or weed control at 500 g/ha: 500 g ai/ha, 0 to 100 scale, 0 = no effect, 100 = complete control. A digest of the protocol: (§1)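 Compounds were formulated in a non-phytotoxic solvent mixture with surfactant and applied as a preemergence directed soil spray after seeding, or sprayed postemergence over plants 2 to 10 cm tall at the one- to two-leaf stage. Evaluation after about 10 d compared treated with untreated controls, using a scale from 0 (no effect) to 100 (complete control).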

Experiment [1] deals with ryegrass, Italian (Italian ryegrass, Lolium multiflorum). Kind of experiment: Test A preemergence. The following applies: Lolium multiflorum, pre-emergence, 240 h, read-out: Plant response rating, Ryegrass, Italian; for pest or weed control at 125 g/ha: 125 g ai/ha, visual rating after approx. 10 d, 0 to 100 scale where 0 is no effect and 100 is complete control; for pest or weed control at 125 g/ha / pest or weed control at 500 g/ha: preemergence; for pest or weed control at 500 g/ha: 500 g ai/ha, 0 to 100 scale, 0 = no effect, 100 = complete control. The procedure, abridged: as §1

For experiment [2], the system named is giant foxtail (Setaria faberii). Kind of experiment: Test A preemergence. The following applies: Setaria faberi, pre-emergence, 240 h, read-out: Plant response rating, Foxtail, Giant; for pest or weed control at 125 g/ha: 125 g ai/ha, visual rating after approx. 10 d, 0 to 100 scale where 0 is no effect and 100 is complete control; for pest or weed control at 125 g/ha / pest or weed control at 500 g/ha: preemergence; for pest or weed control at 500 g/ha: 500 g ai/ha, 0 to 100 scale, 0 = no effect, 100 = complete control. The procedure, abridged:
as §1

Experiment [3] relates to ragweed (common ragweed, Ambrosia elatior). The experiment in a line: Test A preemergence. Particulars: Ambrosia artemisiifolia, pre-emergence, 240 h, read-out: Plant response rating, Ragweed; for pest or weed control at 125 g/ha: 125 g ai/ha, visual rating after approx. 10 d, 0 to 100 scale where 0 is no effect and 100 is complete control; for pest or weed control at 125 g/ha / pest or weed control at 500 g/ha: preemergence; for pest or weed control at 500 g/ha: 500 g ai/ha, 0 to 100 scale, 0 = no effect, 100 = complete control. The procedure, abridged: as §1

For experiment [4], the system named is barnyardgrass (Echinochloa crus-galli). The experiment in a line: Test A preemergence. The following applies: Echinochloa crus-galli, pre-emergence, 240 h, read-out: Plant response rating, Barnyardgrass; for pest or weed control at 125 g/ha: 125 g ai/ha, visual rating after approx. 10 d, 0 to 100 scale where 0 is no effect and 100 is complete control; for pest or weed control at 125 g/ha / pest or weed control at 500 g/ha: preemergence; for pest or weed control at 500 g/ha: 500 g ai/ha, 0 to 100 scale, 0 = no effect, 100 = complete control. The procedure, abridged:
as §1

Experiment [5] concerns pigweed (Amaranthus retroflexus). The experiment in a line: Test A preemergence. Particulars: Amaranthus retroflexus, pre-emergence, 240 h, read-out: Plant response rating, Pigweed; for pest or weed control at 125 g/ha: 125 g ai/ha, visual rating after approx. 10 d, 0 to 100 scale where 0 is no effect and 100 is complete control; for pest or weed control at 125 g/ha / pest or weed control at 500 g/ha: preemergence; for pest or weed control at 500 g/ha: 500 g ai/ha, 0 to 100 scale, 0 = no effect, 100 = complete control.

Experiment [6] deals with ducksalad (Heteranthera limosa). The experiment in a line: Test B flooded paddy test. Particulars: Heteranthera limosa, Flood, 250 g ai/ha; scale of 0 to 100 where 0 is no effect and 100 is complete control; read-out: Ducksalad plant response rating. The procedure, abridged:
(§2)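 Plants at 2-leaf stage flooded to 3 cm above soil, with compounds applied directly to paddy water and that depth maintained. Plants kept in greenhouse 13–15 d. Visual rating versus controls on a 0 (no effect) to 100 (complete control) scale.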

Experiment [7] deals with sedge, umbrella (small-flower umbrella sedge, Cyperus difformis). Kind of experiment: Test B flooded paddy test. Particulars: Cyperus difformis, Flood, 250 g ai/ha; scale of 0 to 100 where 0 is no effect and 100 is complete control; read-out: Sedge, Umbrella plant response rating. A digest of the protocol:
as §2

The subject of the next experiment is rice (Oryra sativa). Kind of experiment: Test B flooded paddy test. Particulars: Oryza sativa, Flood, 250 g ai/ha; scale of 0 to 100 where 0 is no effect and 100 is complete control; read-out: Rice plant response rating. The procedure, abridged: as §2
Experiment [8] has as its system barnyardgrass (Echinochloa crus-galli). Kind of experiment: Test B flooded paddy test. The following applies: Echinochloa crus-galli, Flood, 250 g ai/ha; scale of 0 to 100 where 0 is no effect and 100 is complete control; read-out: Barnyardgrass plant response rating. A digest of the protocol: as §2
The subject of experiment [9] is ryegrass, Italian (Italian ryegrass, Lolium multiflorum). Kind of experiment: Test A postemergence. Particulars: Lolium multiflorum, post-emergence, 240 h; for pest or weed control at 125 g/ha: 125 g ai/ha, postemergence. The procedure, abridged:
as §1

Experiment [10] deals with giant foxtail (Setaria faberii). The experiment in a line: Test A postemergence. The following applies: Setaria faberi, post-emergence, 240 h; for pest or weed control at 125 g/ha: 125 g ai/ha, postemergence. The procedure, abridged:
as §1

The subject of experiment [11] is barnyardgrass (Echinochloa crus-galli). The experiment in a line: Test A postemergence. Particulars: Echinochloa crus-galli, post-emergence, 240 h; for pest or weed control at 125 g/ha: 125 g ai/ha, postemergence. The procedure, abridged:
as §1

Experiment [12] concerns pigweed (Amaranthus retroflexus). The experiment in a line: Test A postemergence. The following applies: Amaranthus retroflexus, post-emergence, 240 h; for pest or weed control at 125 g/ha: 125 g ai/ha, postemergence. A digest of the protocol:
as §1

[13] abbreviates: visual injury after approximately 10 d, 0 to 100 scale (0 no effect, 100 complete control), read-out: Plant response rating, Ryegrass, Italian.
Setting [14] is: visual injury after approximately 10 d, 0 to 100 scale (0 no effect, 100 complete control), read-out: Plant response rating, Foxtail, Giant.
The mark [15] stands for this setting: visual injury after approximately 10 d, 0 to 100 scale (0 no effect, 100 complete control), read-out: Plant response rating, Barnyardgrass.
Where [16] appears, read: visual injury after approximately 10 d, 0 to 100 scale (0 no effect, 100 complete control), read-out: Plant response rating, Pigweed.
Setting [17] is: Preemergence, 31 g ai/ha, 0 to 100 scale (0 no effect, 100 complete control).

As for `CN1C[C@H](c2ccc3c(c2)CCC3)[C@@H](C(=O)Nc2ccccc2S(C)(=O)=O)C1=O` [Compound 744], the pest or weed control at 125 g/ha in the experiment with Kochia (Kochia scoparia) was determined as 60%; in experiment [1], 0%; in experiment [2], 90%; in experiment [3], 0%; in experiment [4] it was 20%; in [5], 20%. Moreover, the pest or weed control at 125 g/ha in [9] (setting [13]) is 30%; in [10] (setting [14]), 80%; in experiment [11] (setting [15]), 60%; in [12] (setting [16]), 0%. Also, the pest or weed control at 500 g/ha with Kochia (Kochia scoparia) was found to be 90%; in experiment [1], 80%; in experiment [2], 90%; in experiment [3] it was 50%; in experiment [4] it was 90%; in experiment [5], 50%. In addition, the pest or weed control at 250 g/ha in experiment [6] was 85%; in experiment [7] it was 0%; in the experiment on rice (Oryra sativa), 0%; in experiment [8], 60%.
Take `CN1C[C@H](c2ccc(C(F)(F)F)cc2)[C@@H](C(=O)Nc2ccc(F)c(F)c2F)C1=O` [Compound 745]: the pest or weed control at 125 g/ha in the experiment with Kochia (Kochia scoparia) was 90%; in experiment [1] it was 70%; in experiment [2] it was 90%; in experiment [3], 80%; in [4], 90%; in experiment [5], 80%. In addition, the pest or weed control at 125 g/ha in [9] (setting [13]) was found to be 50%; in experiment [10] (setting [14]), 90%; in [11] (setting [15]), 90%; in experiment [12] (setting [16]), 70%. For the same compound, the pest or weed control at 500 g/ha amounted to 90% with Kochia (Kochia scoparia); 90% in experiment [1]; 90% in experiment [2]; 80% in [3]; 90% in experiment [4]; 90% in experiment [5]. Moreover, the pest or weed control at 250 g/ha in [6] is 100%; in experiment [7], 0%; with rice (Oryra sativa), 40%; in experiment [8], 70%.
For `CN1C[C@H](c2ccc(C(F)F)cc2)[C@@H](C(=O)Nc2ccccc2F)C1=O` [Compound 803], the pest or weed control at 125 g/ha in the experiment on Kochia (Kochia scoparia) amounted to 70%; in experiment [1], 0%; in experiment [2], 90%; in experiment [3], 60%; in [4] it was 90%; in experiment [5], 60%. Also, the pest or weed control at 125 g/ha in experiment [9] (visual injury rating after approximately 10 d, read-out: Ryegrass, Italian plant response rating (0 to 100 scale, 0 no effect, 100 complete control)) worked out at 40%; in experiment [10] (visual injury rating after approximately 10 d, read-out: Foxtail, Giant plant response rating (0 to 100 scale, 0 no effect, 100 complete control)) it was 90%; in experiment [11] (visual injury rating after approximately 10 d, read-out: Barnyardgrass plant response rating (0 to 100 scale, 0 no effect, 100 complete control)), 80%; in experiment [12] (visual injury rating after approximately 10 d, read-out: Pigweed plant response rating (0 to 100 scale, 0 no effect, 100 complete control)) it was 40%. Also, the pest or weed control at 31 g/ha in the experiment on Kochia (Kochia scoparia) (setting [17]) is 50%; in experiment [1] (setting [17]), 0%; in [2] (setting [17]), 90%; in experiment [3] (setting [17]) it was 30%; in [4] (setting [17]) it was 70%; in [5] (setting [17]) it was 40%. Besides, the pest or weed control at 31 g/ha in experiment [9] (Postemergence, 31 g ai/ha, visual injury after approx. 10 d, 0 to 100 scale, 0 no effect, 100 complete control, read-out: Plant response rating, Ryegrass, Italian) amounted to 0%; in [10] (Postemergence, 31 g ai/ha, visual injury after approx. 10 d, 0 to 100 scale, 0 no effect, 100 complete control, read-out: Plant response rating, Foxtail, Giant), 90%; in experiment [11] (Postemergence, 31 g ai/ha, visual injury after approx. 10 d, 0 to 100 scale, 0 no effect, 100 complete control, read-out: Plant response rating, Barnyardgrass), 80%; in [12] (Postemergence, 31 g ai/ha, visual injury after approx. 10 d, 0 to 100 scale, 0 no effect, 100 complete control, read-out: Plant response rating, Pigweed), 30%. Besides, the pest or weed control at 250 g/ha in experiment [6] was 100%; in [7] it was 0%; in the experiment on rice (Oryra sativa), 55%; in [8], 90%.
